From patent US6350839B2, “Hydrolysis-stable and polymerizable acrylophosphonic acid monoesters” (Ivoclar Vivadent AG, priority 2000, dated 2002)
Converted amounts (≈) assume the structure as drawn. Like-named read-outs stand apart in the source and are kept apart here.

How the values were obtained:
Type in all cases: physicochemical
[1] = Solubility of monomer in water and ethanol
Experimental: (§1) The solubility of monomer 1 in water and ethanol was determined and the pH value of a 20% solution of the monomer in a 1:1 mixture of ethanol and water measured.

[2] = pH value (acid strength) of a 20% monomer solution; conditions: text: 1:1 mixture of ethanol and water
Experimental: as §1

[3] = Hydrolytic stability by weekly 1H-NMR of stored solution; conditions: 20% solution in 1:1 water/ethanol, stored at 37° C., 8-week investigation period
Experimental: Monomer 1 is dissolved in a 1:1 mixture of water and ethanol and a 20% solution is stored at 37° C. The ^1H-NMR spectrum of the solution is recorded weekly.

[4] = water, read-out: water solubility

Row | Structure (SMILES) | solubility in ethanol ([1]; ethanol) | solubility [1, 4] | pH value of a 20% solution [2] | solubility ([1]; ethanol, organic solvent or mixture, read-out: solubility in ethanol) | hydrolytic stability (change in 1H-NMR spectrum) [3]
1 | C=C(COCCP(=O)(O)O)C(=O)O [Comparison monomer, 2-[4-dihydroxyphosphoryl-2-oxa-butyl]-acrylic acid, reference compound] | practically insoluble | ~400 mg/mL (≈ 1900 mM) | 1.25 | – | –
2 | C=C(COCCP(=O)(O)OC)C(=O)O [Monomer 1, 2-[4-hydroxymethoxyphosphoryl-2-oxa-butyl]-acrylic acid] | – | > 500 mg/mL | 0.61 | > 500 mg/mL | no change in the spectrum
